Data: article doi:10.1101/2025.04.25.650653, “Hierarchical small molecule inhibition of MYST acetyltransferases” (bioRxiv, 2025)
Like-named read-outs stand apart in the source and are kept apart here.

Experiments:
KAT5 MYST domain [1] = settings: MYST domains, cited from earlier work
KAT5 MYST domain [2] = settings: SPR, MYST domains, as previously described (WM-8014); ref https://www.nature.com/articles/s41586-019-1835-6; cited from earlier work
KAT6A MYST domain [3] = settings: SPR, MYST domains, cited from earlier work
H3K23Ac (KAT6A/B) = test: Histone acetylation biomarker western blot, MCF-7; assay type: cell-based; settings: MCF-7 cells, 24 h
KAT6A MYST domain [4] = settings: MYST domains, cited from earlier work
[5] = system: proteins captured by H3K14-CoA resin from HeLa nuclear extracts; test: Proteome-wide competitive chemoproteomic profiling (H3K14-CoA beads, TMT LC-MS/MS); assay type: binding; settings: for Log2FC (100nM) / (000nM): 100 nM WM-3835, H3K14-CoA beads; for Log2FC (100nM) / (000nM) / Log2FC (1000nM) / (000nM) / Log2FC (10000nM) / (000nM): TMT; for Log2FC (1000nM) / (000nM): 1000 nM WM-3835, H3K14-CoA beads; for Log2FC (10000nM) / (000nM): 10000 nM WM-3835, H3K14-CoA beads
KAT7 MYST domain [6] = settings: SPR, MYST domains, as previously described (WM-8014); ref https://www.nature.com/articles/s41586-019-1835-6; cited from earlier work
H4K16Ac (KAT8) = test: Histone acetylation biomarker western blot, MCF-7; assay type: cell-based; settings: MCF-7 cells, 24 h, up to 30 μM
Method: (§1) Target engagement was assessed using the panel of MYST-dependent histone acetylation biomarkers defined above. […] While WM-3835 has been applied to study KAT7, its initial publication alludes to its ability to inhibit both KAT6A/B and KAT7.[14], [43] […] All commercial vendors currently market WM-3835 as a KAT7 inhibitor.
(§2) General materials and methods
Total protein on western blots was […]
(§3) manufacturer's protocols.
KAT capture and competitive chemoproteomic profiling […]
(§4) for 2 hours, then lyophilized.
12 μL triethylamine. […] The beads were then magnetically separated […]
distinguish between tightly grouped and diffuse clusters, compactness was quantified by calculating the average pairwise Euclidean distance between all points within each cluster. Clusters with lower average

[7] = system: histone acetylation biomarkers for KAT6, KAT7, KAT8, and KAT5; test: Histone acetylation biomarker panel by western blot, MCF-7; assay type: cell-based
Description: Figure 5. Comparative cellular analysis of orthogonal MYST inhibitor chemotypes. (A) Chemical structures of commonly used MYST KAT inhibitors. Annotated target: KAT enzyme specified as target of each inhibitor in scientific or commercial vendor literature. Biomarker: KAT-regulated histone acetylation biomarker found to be modulated by each compound in this study. (B) Cellular response of histone acetylation biomarkers for KAT6, KAT7, KAT8, and KAT5 to treatment with drug-like MYST acetyltransferases inhibitors. MCF-7 cells were treated with escalating dosages (0.1, 1, 10, 30 μM.) of each compound for 24 h. […] Data is representative of n=2 biological replicates. […]
as §1, §2
Total protein on western blots was
as §3
KAT capture and competitive chemoproteomic profiling
as §4

KAT7 MYST domain [8] = settings: MYST domains, cited from earlier work
KAT6B MYST domain = system: KAT6B MYST domain; design: method as in https://www.nature.com/articles/s41586-018-0387-5; settings: MYST domains, 0.4 uM AcCoA, H4 peptide; ref https://www.nature.com/articles/s41586-018-0387-5; cited from earlier work
KAT8 MYST domain = system: KAT8 MYST domain; design: method as in https://www.nature.com/articles/s41586-018-0387-5; settings: MYST domains, 0.4 uM AcCoA, H4 peptide; ref https://www.nature.com/articles/s41586-018-0387-5; cited from earlier work
H3K14Ac (KAT7) = test: Histone acetylation biomarker western blot, MCF-7; assay type: cell-based; settings: MCF-7 cells, 24 h
NCI-60 cell line panel = test: NCI-60 cell line screen, sulforhodamine B growth inhibition; assay type: cell-based, human; settings: most cases, 48 h
[9] = protein MBTD1 (Q05BQ5, NuA4/Tip60)
[10] = protein MRGBP (Q9NV56, NuA4/Tip60)
[11] = protein TRRAP (Q9Y4A5, NuA4/Tip60)

Cc1cc(-c2ccccc2)cc(C(=O)NNS(=O)(=O)c2cccc(O)c2)c1F [WM-3835]
IC50 (KAT5 MYST domain [1]; 1 μM acetyl-CoA, WM-3835 sheet, ref https://www.nature.com/articles/s41586-019-1835-6, read-out: KAT5 IC50): 0.312 µM | Kd (KAT5 MYST domain [2]): 500 nM | Kd (KAT6A MYST domain [3]; as previously described (WM-8014), ref https://www.nature.com/articles/s41586-019-1835-6): 7 nM | inhibition of KAT6A/B-catalyzed H3K23Ac (H3K23Ac (KAT6A/B)): potently inhibits | IC50 (KAT6A MYST domain [4]; 1 μM acetyl-CoA, WM-3835 sheet, ref https://www.nature.com/articles/s41586-019-1835-6, read-out: KAT6A IC50): 0.017 µM | competition of JADE2 versus BRPF3 capture ([5]; 0, 0.1, 1, 10 μM): differential competition of JADE2 and BRPF3 capture | Log2FC (100nM) / (000nM) ([5]; protein KAT14 (Q9H8E8, STAGA)): 0.25 | Log2FC (1000nM) / (000nM) ([5]; protein KAT14 (Q9H8E8, STAGA)): -0.01 | Log2FC (10000nM) / (000nM) ([5]; protein KAT14 (Q9H8E8, STAGA)): -0.28 | Log2FC (100nM) / (000nM) [5, 9]: 0.4 | Log2FC (1000nM) / (000nM) [5, 9]: 0.54 | Log2FC (10000nM) / (000nM) [5, 9]: 0.24 | Log2FC (100nM) / (000nM) [5, 10]: 0.37 | Log2FC (1000nM) / (000nM) [5, 10]: 0.49 | Log2FC (10000nM) / (000nM) [5, 10]: 0.27 | Log2FC (100nM) / (000nM) [5, 11]: -0.03 | Log2FC (1000nM) / (000nM) [5, 11]: 0.04 | Log2FC (10000nM) / (000nM) [5, 11]: -0.06 | Kd (KAT7 MYST domain [6]): 34 nM | inhibition of KAT8 (H4K16Ac) (H4K16Ac (KAT8)): not KAT8 | more potent inhibition of KAT6A/B (H3K23Ac) than KAT7 (H3K14Ac) ([7]; MCF-7 model, 24 h): ~ 100 fold | IC50 (KAT7 MYST domain [8]; 1 μM acetyl-CoA, WM-3835 sheet, ref https://www.nature.com/articles/s41586-019-1835-6, read-out: KAT7 IC50): 0.03 µM

Cc1cc(-c2ccccc2)cc(C(=O)NNS(=O)(=O)c2ccccc2)c1F [WM-8014]
IC50 (KAT5 MYST domain [1]; 5 uM AcCoA, H4 peptide, ref https://www.nature.com/articles/s41586-018-0387-5, read-out: KAT5 IC50): 0.224 µM | Kd (KAT6A MYST domain [3]; ref https://www.nature.com/articles/s41586-018-0387-5): 5.1 nM | IC50 (KAT6A MYST domain [4]; 0.4 uM AcCoA, H4 peptide, ref https://www.nature.com/articles/s41586-018-0387-5, read-out: KAT6A IC50): 0.0082 µM | IC50 (KAT6B MYST domain): 28 nM | IC50 (KAT8 MYST domain): 11 µM | doses at which KAT7 (H3K14Ac) is inhibited (H3K14Ac (KAT7)): 10 to 30 µM | inhibition of KAT8 (H4K16Ac) (H4K16Ac (KAT8)): not KAT8 | IC50 (KAT7 MYST domain [8]; 1 uM AcCoA, H4 FL, ref https://www.nature.com/articles/s41586-018-0387-5, read-out: KAT7 IC50): 0.342 µM

C[C@H](CN[C@@H](C(=O)Nc1ccc(-c2cnn(C)c2)cn1)c1ccccc1)c1ccc(C#N)cc1 [CPI-1612]
growth inhibition potency compared with PF-9363 (NCI-60 cell line panel): much more potent

O=C(NNS(=O)(=O)c1ccccc1F)c1cc(F)cc(-c2ccccn2)c1 [WM-1119]
IC50 (KAT5 MYST domain [1]; 1 μM acetyl-CoA, ref https://www.nature.com/articles/s41586-019-1835-6, read-out: KAT5 IC50 in μM (paper2)): 9.8 µM | IC50 (KAT6A MYST domain [4]; 0.4 uM AcCoA, ref https://www.nature.com/articles/s41586-018-0387-5, read-out: KAT6A IC50 in μM (paper 1)): 0.0063 µM | IC50 (KAT6A MYST domain [4]; 1 μM acetyl-CoA, ref https://www.nature.com/articles/s41586-019-1835-6, read-out: KAT6A IC50 in μM (paper2)): 0.077 µM | inhibition of KAT7 (H3K14Ac) at the highest concentration tested (H3K14Ac (KAT7); 30 μM): little inhibition of KAT7 | effect on biomarkers other than KAT6A/B ([7]; MCF-7 cells, high concentrations): untouched | IC50 (KAT7 MYST domain [8]; 1 μM acetyl-CoA, ref https://www.nature.com/articles/s41586-019-1835-6, read-out: KAT7 IC50 in μM (paper2)): 0.578 µM
